Data published in ChEMBL document CHEMBL3603790, “2- and 3-Fluoro-3-deazaneplanocins, 2-fluoro-3-deazaaristeromycins, and 3-methyl-3-deazaneplanocin: Synthesis and antiviral properties” (Bioorg Med Chem, 2015).
The source made the active and inactive calls. The calls are words filed in the database; no cut-off is given here.

system: Hepatitis B virus; assay: Antiviral activity against HBV infected in human HepG22.2.15 cells after 3 days by neutral red dye-based plaque reduction assay; format: functional, organism-based; details: HepG2 2.2.15, 72 h

| Compound | IC50 |
| --- | --- |
| Nc1ccn([C@@H]2CS[C@H](CO)O2)c(=O)n1 [LAMIVUDINE] | 0.039 µM |

system: Tacaribe virus; assay: Antiviral activity against Tacaribe virus infected in African green monkey Vero 76 cells after 3 days by neutral red dye-based plaque reduction assay; format: functional, organism-based; details: Mammarenavirus tacaribeense

| Compound | Activity |
| --- | --- |
| Nc1nc(F)cc2c1ncn2[C@@H]1C[C@H](CO)[C@@H](O)[C@H]1O | inactive |

same assay, conditions: Mammarenavirus tacaribeense, 72 h

| Compound | IC50 |
| --- | --- |
| NC(=O)c1ncn([C@@H]2O[C@H](CO)[C@@H](O)[C@H]2O)n1 [RIBAVIRIN] | 26.7 µM |

system: not listed separately; assay: Cytotoxicity against human […] cells; format: cell-based; details: not given

| Compound | CC50 |
| --- | --- |
| Nc1ccn([C@@H]2CS[C@H](CO)O2)c(=O)n1 [LAMIVUDINE] | 2180 µM |

system: not listed separately; assay: Selectivity index, ratio of CC50 for African green monkey Vero cells to IC50 for Yellow fever virus; format: functional; details: not given

| Compound | Ratio CC50/IC50 |
| --- | --- |
| Nc1nc(F)cc2c1ncn2[C@@H]1C[C@H](CO)[C@@H](O)[C@H]1O | >170 |

system: not listed separately; assay: Cytotoxicity against MDCK cells relative to control; format: cell-based, Canis lupus familiaris; details: dog

| Compound | CC50 |
| --- | --- |
| NC(=O)c1ncn([C@@H]2O[C@H](CO)[C@@H](O)[C@H]2O)n1 [RIBAVIRIN] | > 100 µM |

system: Yellow fever virus; assay: Antiviral activity against Yellow fever virus infected in African green monkey Vero cells after 3 days by neutral red dye-based plaque reduction assay; format: functional, organism-based; details: 72 h

| Compound | IC50 |
| --- | --- |
| Nc1nc(F)cc2c1ncn2[C@@H]1C[C@H](CO)[C@@H](O)[C@H]1O | 2.1 µM |

system: Vaccinia virus; assay: Antiviral activity against Vaccinia virus infected in HEL cells after 3 days by neutral red dye-based plaque reduction assay; format: functional, organism-based; details: Orthopoxvirus vaccinia

| Compound | Activity |
| --- | --- |
| Nc1nc(F)cc2c1ncn2[C@@H]1C[C@H](CO)[C@@H](O)[C@H]1O | inactive |

system: Venezuelan equine encephalitis virus; assay: Antiviral activity against Venezuelan equine encephalitis virus infected in African green monkey Vero cells after 3 days by neutral red dye-based plaque reduction assay; format: functional, organism-based; details: not given

| Compound | Activity |
| --- | --- |
| Nc1nc(F)cc2c1ncn2[C@@H]1C[C@H](CO)[C@@H](O)[C@H]1O | inactive |

system: HeLa; assay: Cytotoxicity against human HeLa cells; format: cell-based; details: not given

| Compound | Activity |
| --- | --- |
| Nc1nc(F)cc2c1ncn2[C@@H]1C[C@H](CO)[C@@H](O)[C@H]1O | Non-toxic |

system: not listed separately; assay: Cytotoxicity against African green monkey CV1 cells; format: cell-based, CV-1; details: chlorocebus aethiops

| Compound | CC50 |
| --- | --- |
| Nc1cc2nc[nH]c2c(=O)[nH]1 [DEZAGUANINE] | 250 µM |
| Nc1nc(F)cc2c1ncn2[C@@H]1C[C@H](CO)[C@@H](O)[C@H]1O | > 355 µM |

system: Respiratory syncytial virus; assay: Antiviral activity against Respiratory syncytial virus infected in monkey MA104 cells after 3 days by neutral red dye-based plaque reduction assay; format: functional, organism-based; details: not given

| Compound | Activity |
| --- | --- |
| Nc1nc(F)cc2c1ncn2[C@@H]1C[C@H](CO)[C@@H](O)[C@H]1O | inactive |

system: Dengue virus; assay: Antiviral activity against Dengue virus infected in African green monkey Vero cells after 3 days by neutral red dye-based plaque reduction assay; format: functional, organism-based; details: not given

| Compound | Activity |
| --- | --- |
| Nc1nc(F)cc2c1ncn2[C@@H]1C[C@H](CO)[C@@H](O)[C@H]1O | inactive |

system: not listed separately; assay: Cytotoxicity against African green monkey Vero 76 cells relative to control; format: cell-based; details: chlorocebus sabaeus

| Compound | CC50 |
| --- | --- |
| NC(=O)c1ncn([C@@H]2O[C@H](CO)[C@@H](O)[C@H]2O)n1 [RIBAVIRIN] | > 1000 µM |

system: not listed separately; assay: Cytotoxicity against African green monkey Vero 76 cells; format: cell-based; details: chlorocebus sabaeus, Vero 76 cells

| Compound | CC50 |
| --- | --- |
| NC(=O)c1ncn([C@@H]2O[C@H](CO)[C@@H](O)[C@H]2O)n1 [RIBAVIRIN] | > 1000 µM |

same assay, conditions: chlorocebus sabaeus, vero 76

| Compound | Activity |
| --- | --- |
| Nc1nc(F)cc2c1ncn2[C@@H]1C[C@H](CO)[C@@H](O)[C@H]1O | Non-toxic |

system: not listed separately; assay: Cytotoxicity against HFF; format: cell-based; details: human, HFF cells

| Compound | CC50 |
| --- | --- |
| Nc1nc2c(ncn2COC(CO)CO)c(=O)[nH]1 [GANCICLOVIR] | > 100 µM |

system: Measles morbillivirus; assay: Antiviral activity against Measles virus infected in African green monkey CV1 cells after 3 days by neutral red dye-based plaque reduction assay; format: functional, organism-based; details: CV-1, 72 h

| Compound | IC50 |
| --- | --- |
| Nc1cc2nc[nH]c2c(=O)[nH]1 [DEZAGUANINE] | 4.1 µM |
| Nc1nc(F)cc2c1ncn2[C@@H]1C[C@H](CO)[C@@H](O)[C@H]1O | 9.6 µM |

system: West Nile virus; assay: Antiviral activity against WNV infected in African green monkey Vero 76 cells after 3 days by neutral red dye-based plaque reduction assay; format: functional, organism-based; details: not given

| Compound | Activity |
| --- | --- |
| Nc1nc(F)cc2c1ncn2[C@@H]1C[C@H](CO)[C@@H](O)[C@H]1O | inactive |

system: not listed separately; assay: Cytotoxicity against monkey MA104 cells; format: cell-based, Macaca mulatta; details: rhesus monkey

| Compound | Activity |
| --- | --- |
| Nc1nc(F)cc2c1ncn2[C@@H]1C[C@H](CO)[C@@H](O)[C@H]1O | Non-toxic |

system: Human betaherpesvirus 5; assay: Antiviral activity against HCMV infected in HFF after 3 days by neutral red dye-based plaque reduction assay; format: functional, organism-based; details: Human betaherpesvirus 5, 72 h

| Compound | IC50 |
| --- | --- |
| Nc1nc2c(ncn2COC(CO)CO)c(=O)[nH]1 [GANCICLOVIR] | 3.6 µM |

system: not listed separately; assay: Cytotoxicity against human Ava5 cells; format: cell-based; details: not given

| Compound | Activity |
| --- | --- |
| Nc1nc(F)cc2c1ncn2[C@@H]1C[C@H](CO)[C@@H](O)[C@H]1O | Non-toxic |

system: Rift Valley fever virus; assay: Antiviral activity against Rift Valley fever virus infected in African green monkey Vero 76 cells after 3 days by neutral red dye-based plaque reduction assay; format: functional, organism-based; details: not given

| Compound | Activity |
| --- | --- |
| Nc1nc(F)cc2c1ncn2[C@@H]1C[C@H](CO)[C@@H](O)[C@H]1O | inactive |

same assay, conditions: 72 h

| Compound | IC50 |
| --- | --- |
| NC(=O)c1ncn([C@@H]2O[C@H](CO)[C@@H](O)[C@H]2O)n1 [RIBAVIRIN] | 37.3 µM |

system: Influenza B virus; assay: Antiviral activity against Influenza B virus infected in MDCK cells after 3 days by neutral red dye-based plaque reduction assay; format: functional, organism-based; details: 72 h

| Compound | IC50 |
| --- | --- |
| NC(=O)c1ncn([C@@H]2O[C@H](CO)[C@@H](O)[C@H]2O)n1 [RIBAVIRIN] | 9 µM |

system: Respiratory syncytial virus; assay: Antiviral activity against Respiratory syncytial virus infected in human HeLa cells after 3 days by neutral red dye-based plaque reduction assay; format: functional, organism-based; details: not given

| Compound | Activity |
| --- | --- |
| Nc1nc(F)cc2c1ncn2[C@@H]1C[C@H](CO)[C@@H](O)[C@H]1O | inactive |

system: HEL; assay: Cytotoxicity against HEL cells; format: cell-based; details: human

| Compound | Activity |
| --- | --- |
| Nc1nc(F)cc2c1ncn2[C@@H]1C[C@H](CO)[C@@H](O)[C@H]1O | Non-toxic |

system: Hepatitis C virus; assay: Antiviral activity against Hepatitis C virus infected in human Ava5 cells after 3 days by neutral red dye-based plaque reduction assay; format: functional, organism-based; details: Hepacivirus hominis

| Compound | Activity |
| --- | --- |
| Nc1nc(F)cc2c1ncn2[C@@H]1C[C@H](CO)[C@@H](O)[C@H]1O | inactive |

system: not listed separately; assay: Cytotoxicity against African green monkey Vero cells; format: cell-based; details: chlorocebus sabaeus, Vero cells

| Compound | CC50 |
| --- | --- |
| Nc1nc(F)cc2c1ncn2[C@@H]1C[C@H](CO)[C@@H](O)[C@H]1O | > 355 µM |

target: not listed separately; assay: Inhibition of rabbit erythrocytic AdoHcy hydrolase using AdoHcy as substrate assessed as formation of L-homocysteine preincubated for 5 mins followed by substrate addition measured after 1 hr by thiol quantitation reagent-based assay; design: species or system Oryctolagus cuniculus; details: not given

| Compound | IC50 |
| --- | --- |
| Nc1nc(F)cc2c1ncn2[C@@H]1C[C@H](CO)[C@@H](O)[C@H]1O | 3.32 µM |

system: not listed separately; assay: Selectivity index, ratio of CC50 for African green monkey CV1 cells to IC50 for Measles virus; format: functional, CV-1; details: not given

| Compound | Ratio CC50/IC50 |
| --- | --- |
| Nc1nc(F)cc2c1ncn2[C@@H]1C[C@H](CO)[C@@H](O)[C@H]1O | >37 |
